How the values were obtained:
human Factor 11 mRNA = assay: Dose-dependent inhibition of human Factor 11 in HepG2 cells, electroporation 625-20,000 nM (Example 5); type: cell-based; settings: ~16 hours
Protocol: The gapmers were also transfected via electroporation and their dose dependent inhibition of human Factor 11 mRNA was measured. Cells were plated at a density of 20,000 cells per well and transfected via electroporation with 625 nM, 1250 nM, 2500 nM, 5,000 nM, 10,000 nM, and 20,000 nM concentrations of antisense oligonucleotide, as specified in Table 12. After a treatment period of approximately 16 hours, RNA was isolated from the cells and human Factor 11 mRNA levels were measured by quantitative real-time PCR. Human Factor 11 primer probe set RTS 2966 was used to measure mRNA levels. Factor 11 mRNA levels were adjusted according to total RNA content, as measured by RIBOGREEN. Results are presented as percent inhibition of human Factor 11, relative to untreated control cells.

[1] = set-up: species or system CD1 mice; settings: mouse, in vivo
Protocol: Five mice from each group were sacrificed 3 days, 28 days and 56 days following the final dose. Livers were harvested for analysis.
The concentration of the full-length oligonucleotide as well as the total oligonucleotide concentration (including the degraded form) was measured. The method used is a modification of previously published methods (Leeds et al., 1996; Geary et al., 1999) which consist of a phenol-chloroform (liquid-liquid) extraction followed by a solid phase extraction. An internal standard (ISIS 355868, a 27-mer 2′-O-methoxyethyl modified phosphorothioate oligonucleotide, […], designated herein as SEQ ID NO: 270) was added prior to extraction. […] Half-lives were then calculated using WinNonlin software ([…]).
The results are presented in Tables 68 and 69, expressed as μg/g liver tissue.

[2] = set-up: species or system Sprague-Dawley rats; settings: rat, in vivo
Protocol: Three days after the last dose, the rats were sacrificed and livers and kidneys were collected for analysis.
The concentration of the full-length oligonucleotide as well as the total oligonucleotide concentration (including the degraded form) was measured. The method used is a modification of previously published methods (Leeds et al., 1996; Geary et al., 1999) which consist of a phenol-chloroform (liquid-liquid) extraction followed by a solid phase extraction. An internal standard (ISIS 355868, a 27-mer 2′-O-methoxyethyl modified phosphorothioate oligonucleotide, […], designated herein as SEQ ID NO: 270) was added prior to extraction. […] The results are presented in Tables 77 and 78, expressed as μg/g liver or kidney tissue. Half-lives were then calculated using WinNonlin software ([…]).

Factor 11 mRNA = Factor 11 mRNA in cynomolgus monkey liver, day 55 (Example 46); type: in vivo, cynomolgus monkeys; settings: 25 mg/kg subcutaneously, primer probe set LTS00301
Method in brief: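 Male and female cynomolgus monkeys (2+2 per group) received antisense oligonucleotides sc at 25 mg/kg, three times weekly in week 1 and twice weekly in weeks 2-8. PBS-dosed animals served as control. Factor 11 mRNA in liver on day 55 was measured by real-time PCR (primer probe set LTS00301) as percent inhibition relative to PBS control.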

416850 (antisense TGCACAGTTTCTGGCAGGCC; 5-10-5 gapmer, further chemistry not given here) [compound 416850]
percent inhibition of human Factor 11 mRNA relative to untreated control cells (human Factor 11 mRNA; 625 nM): 69%
percent inhibition of human Factor 11 mRNA relative to untreated control cells (human Factor 11 mRNA; 1250 nM): 80%
percent inhibition of human Factor 11 mRNA relative to untreated control cells (human Factor 11 mRNA; 2500 nM): 87%
percent inhibition of human Factor 11 mRNA relative to untreated control cells (human Factor 11 mRNA; 5000 nM): 90%
percent inhibition of human Factor 11 mRNA relative to untreated control cells (human Factor 11 mRNA; 10000 nM): 93%
percent inhibition of human Factor 11 mRNA relative to untreated control cells (human Factor 11 mRNA; 20000 nM): 96%
Half-Life in the liver [1]: 18 days
Half-life in the liver and kidney [2]: 18 days
% inhibition of Factor 11 mRNA in liver relative to the PBS control (Factor 11 mRNA): 68%

416858 (antisense ACGGCATTGGTGCACAGTTT; 5-10-5 gapmer, further chemistry not given here) [compound 416858]
percent inhibition of human Factor 11 mRNA relative to untreated control cells (human Factor 11 mRNA; 625 nM): 65%
percent inhibition of human Factor 11 mRNA relative to untreated control cells (human Factor 11 mRNA; 1250 nM): 77%
percent inhibition of human Factor 11 mRNA relative to untreated control cells (human Factor 11 mRNA; 2500 nM): 87%
percent inhibition of human Factor 11 mRNA relative to untreated control cells (human Factor 11 mRNA; 5000 nM): 89%
percent inhibition of human Factor 11 mRNA relative to untreated control cells (human Factor 11 mRNA; 10000 nM): 93%
percent inhibition of human Factor 11 mRNA relative to untreated control cells (human Factor 11 mRNA; 20000 nM): 93%
Half-Life in the liver [1]: 26 days
Half-life in the liver and kidney [2]: 26 days
% inhibition of Factor 11 mRNA in liver relative to the PBS control (Factor 11 mRNA): 89%

416999 (antisense GCACAGTTTCTGGCAGGCCT; 2-13-5 gapmer chemistry, further chemistry not given here) [compound 416999]
percent inhibition of human Factor 11 mRNA relative to untreated control cells (human Factor 11 mRNA; 625 nM): 61%
percent inhibition of human Factor 11 mRNA relative to untreated control cells (human Factor 11 mRNA; 1250 nM): 82%
percent inhibition of human Factor 11 mRNA relative to untreated control cells (human Factor 11 mRNA; 2500 nM): 89%
percent inhibition of human Factor 11 mRNA relative to untreated control cells (human Factor 11 mRNA; 5000 nM): 94%
percent inhibition of human Factor 11 mRNA relative to untreated control cells (human Factor 11 mRNA; 10000 nM): 94%
percent inhibition of human Factor 11 mRNA relative to untreated control cells (human Factor 11 mRNA; 20000 nM): 97%
Half-Life in the liver [1]: 9 days
Half-life in the liver and kidney [2]: 9 days

417002 (antisense GGTGCACAGTTTCTGGCAGG; 2-13-5 gapmer chemistry, further chemistry not given here) [compound 417002]
percent inhibition of human Factor 11 mRNA relative to untreated control cells (human Factor 11 mRNA; 625 nM): 59%
percent inhibition of human Factor 11 mRNA relative to untreated control cells (human Factor 11 mRNA; 1250 nM): 72%
percent inhibition of human Factor 11 mRNA relative to untreated control cells (human Factor 11 mRNA; 2500 nM): 86%
percent inhibition of human Factor 11 mRNA relative to untreated control cells (human Factor 11 mRNA; 5000 nM): 90%
percent inhibition of human Factor 11 mRNA relative to untreated control cells (human Factor 11 mRNA; 10000 nM): 94%
percent inhibition of human Factor 11 mRNA relative to untreated control cells (human Factor 11 mRNA; 20000 nM): 96%
Half-Life in the liver [1]: 11 days
Half-life in the liver and kidney [2]: 11 days

417003 (antisense TGGTGCACAGTTTCTGGCAG; 2-13-5 gapmer chemistry, further chemistry not given here) [compound 417003]
percent inhibition of human Factor 11 mRNA relative to untreated control cells (human Factor 11 mRNA; 625 nM): 60%
percent inhibition of human Factor 11 mRNA relative to untreated control cells (human Factor 11 mRNA; 1250 nM): 74%
percent inhibition of human Factor 11 mRNA relative to untreated control cells (human Factor 11 mRNA; 2500 nM): 86%
percent inhibition of human Factor 11 mRNA relative to untreated control cells (human Factor 11 mRNA; 5000 nM): 90%
percent inhibition of human Factor 11 mRNA relative to untreated control cells (human Factor 11 mRNA; 10000 nM): 95%
percent inhibition of human Factor 11 mRNA relative to untreated control cells (human Factor 11 mRNA; 20000 nM): 95%
Half-Life in the liver [1]: 10 days
Half-life in the liver and kidney [2]: 10 days

— patent publication US20230263822A1, “MODULATION OF FACTOR 11 EXPRESSION” (Ionis Pharmaceuticals, Inc., priority 2008, published 2023)
